# Data published in US20130029942A1, “COMPOUNDS AND THERAPEUTICAL USES THEREOF” (Myrexis, Inc., priority 2003, published 2013).
# Structures can show the parent of a compound that is named as a salt. Where two headings read alike, the source gives them in different places.
# What was measured:
# [1] = system: T-47D cells; experiment: Caspase cascade activation / induction of apoptosis in T-47D cells (fluorogenic N-(Ac-DEVD)-N'-ethoxycarbonyl-R110 substrate); type: cell-based, human; settings: Homo sapiens, T47D
# [2] = target: tubulin (Bos taurus, UniProt P81947+Q6B856); experiment: Inhibition of tubulin polymerization (DAPI fluorescence); type: biochemical; settings: MAP-rich tubulin, 30 minutes at 37° C.
# Protocol: Lyophilized tubulin (Cytoskeleton #ML113, 1 mg, MAP-rich) was assayed for the effect of the test compound on tubulin polymerization as measured by change in fluorescence for 4′,6-diamidino-2-phenylindole (DAPI) (Barron, D. M. et al. Analytical Biochem., 2003, 315, 49-56). 1 μl of serial dilutions of each test compound (from 100×DMSO stock) was added in 96 well plate format and preincubated for 30 minutes with 94 ul of the non-GTP supplemented tubulin supernatant. 5 μl of DAPI/GTP solution was added to initiate polymerization and incubated for 30 minutes at 37° C. Fluorescence was read with excitation 350 nm, emission wavelength 485 nm on a Tecan Spectraflour Plus. Polymerized tubulin (DMSO and with the tubulin stabilizer Taxol® (paclitaxel)) gives a higher DAPI fluorescence as compared to non-polymerized tubulin (vinblastine and colchicine used to determine baseline).
# [3] = system: T-47D cells; experiment: Inhibition of cell proliferation (GI50), CellTiter-Glo, T-47D; type: cell-based; settings: Homo sapiens, T47D; T-47D, 48 h; read-out: GI50
# Protocol: (§1) T-47D, DLD, H1299, MX-1 and SW620 cells were grown and harvested as in Example 262. […] An aliquot of 45 μL of cells was added to a well of a 96-well microtiter plate containing 5 μL of a 10% DMSO in RPMI-1640 media solution without compound as the control sample for maximal cell proliferation (Lmax). The samples were mixed by agitation and then incubated at 37° C. for 48 h in a 5% CO2—95% humidity incubator. After incubation, the samples were removed from the incubator and 25 μL of CellTiter-Glo™ reagent (Promega) was added. The samples were mixed by agitation and incubated at room temeperature for 10-15 min. Plates were then read using a luminescent plate reader (Model SPECTRAfluor Plus, Tecan) to give Ltest values.
# (§2) The samples were mixed by agitation and then incubated at 37° C. for 0.5 h in a 5% CO2—95% humidity incubator. After incubation, the samples were removed from the incubator and 25 μL of CellTiter-Glo™ reagent (Promega) was added. The samples were mixed by agitation and incubated at 37° C. for 10-15 min at room temperature in a 5% CO2—95% humidity incubator. Fluorescence was read as above, (LStart) defining luminescence for initial cell number used as baseline in GI50 determinations.
# [4] = system: DLD cells; experiment: Inhibition of cell proliferation (GI50), CellTiter-Glo, DLD; type: cell-based; settings: Homo sapiens; DLD, 48 h; read-out: GI50
# Protocol: as §1, §2
# [5] = system: H1299 cells; experiment: Inhibition of cell proliferation (GI50), CellTiter-Glo, H1299; type: cell-based; settings: Homo sapiens, NCI-H1299, 48 h; read-out: GI50
# Protocol: as §1, §2
# [6] = system: MX-1 cells; experiment: Inhibition of cell proliferation (GI50), CellTiter-Glo, MX-1; type: cell-based; settings: Homo sapiens, MX1; MX-1, 48 h; read-out: GI50
# Protocol: as §1, §2
# [7] = system: SW620 cells; experiment: Inhibition of cell proliferation (GI50), CellTiter-Glo, SW620; type: cell-based; settings: Homo sapiens, SW-620; SW620, 48 h; read-out: GI50
# Protocol: as §1, §2
# [8] = target: T1, topoisomerase I (Homo sapiens, UniProt P11387); experiment: Topoisomerase I activity assay (relaxation of supercoiled DNA, gel); settings: Form I DNA, varying concentrations, FIG. 2
# T1 sequence (P11387 1-765): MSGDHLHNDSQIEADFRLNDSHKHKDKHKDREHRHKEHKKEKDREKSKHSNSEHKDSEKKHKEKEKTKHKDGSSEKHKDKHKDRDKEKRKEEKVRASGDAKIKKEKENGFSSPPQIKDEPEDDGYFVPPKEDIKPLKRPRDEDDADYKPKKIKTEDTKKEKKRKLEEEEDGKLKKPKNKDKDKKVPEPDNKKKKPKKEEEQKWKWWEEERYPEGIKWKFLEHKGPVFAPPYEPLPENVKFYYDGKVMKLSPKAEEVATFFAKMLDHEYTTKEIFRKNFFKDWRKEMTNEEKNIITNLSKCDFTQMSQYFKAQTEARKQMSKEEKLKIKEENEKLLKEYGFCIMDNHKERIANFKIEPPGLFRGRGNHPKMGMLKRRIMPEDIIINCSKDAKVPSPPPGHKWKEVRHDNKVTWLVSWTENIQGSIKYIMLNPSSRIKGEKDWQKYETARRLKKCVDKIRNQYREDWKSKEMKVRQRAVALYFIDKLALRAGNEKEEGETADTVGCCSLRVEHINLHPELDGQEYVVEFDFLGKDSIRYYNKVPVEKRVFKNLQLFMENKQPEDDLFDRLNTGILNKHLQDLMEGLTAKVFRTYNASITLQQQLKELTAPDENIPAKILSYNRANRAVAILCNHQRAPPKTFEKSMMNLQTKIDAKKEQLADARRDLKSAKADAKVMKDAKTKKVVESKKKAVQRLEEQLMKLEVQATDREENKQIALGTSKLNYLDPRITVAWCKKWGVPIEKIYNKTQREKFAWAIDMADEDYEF
# [9] = system: MCF-7 cells; experiment: Cytotoxicity (ATP-lite cell viability), MCF-7; type: cell-based; settings: Homo sapiens, MCF7; MCF-7, 72 hours
# Protocol: (§3) Cytotoxicity of compounds in multidrug resistant cells can be determined by administering compounds to cell lines that overexpress the multidrug resistance pump MDR-1 and determining the viability of the cell lines.
# (§4) NCI-ADR/Res, MCF-7, P388, and P388/ADR cell lines were obtained from American Type Culture Collection (Manassas, Va.) and maintained in RPMI-1640 media supplemented with 10% FCS, 10 units/ml penicillin and streptomycin, 2 mM Glutamax and 1 mM sodium pyruvate (Invitrogen Corporation, Carlsbad, Calif.). For compound testing, cells were plated in 96 well dishes at a concentration of 1.5×10^4 cells/well. Cells were allowed to adhere to the plate overnight and then incubated with compounds at final concentrations ranging from 0.13 nM to 10 uM for 72 hours. Cell viability was then assessed using the ATP-lite reagent (Perkin Elmer, Foster City, Calif.). Plates were read on a Wallac Topcount luminescence reader (Perkin Elmer, Foster City, Calif.) and the results graphed in Prism software (Graphpad Software, Inc., San Diego, Calif.). Non-linear regression with variable slope analysis was performed to obtain IC50 concentration values.
# (§5) Example 1 compound, docetaxel, and vinblastine were tested for their ability to kill multidrug resistant cells by administering the compounds to NCI-ADR/Res, MCF-7 cells, P388 and P388/ADR cells and determining the viability of the cells.
# [10] = system: NCI-ADR/Res cells; experiment: Cytotoxicity (ATP-lite cell viability), MDR-1 over-expressing NCI-ADR/Res; type: cell-based; settings: Homo sapiens, 72 hours
# Protocol: as §3, §4, §5
# [11] = system: P388 cells; experiment: Cytotoxicity (ATP-lite cell viability), P388; type: cell-based, murine; settings: Mus musculus; P388, 72 hours
# Protocol: as §3, §4, §5
# [12] = system: P388/ADR cells; experiment: Cytotoxicity (ATP-lite cell viability), MDR-1 over-expressing P388/ADR; type: cell-based; settings: Mus musculus, 72 hours
# Protocol: as §3, §4, §5
# [13] = T-47D, 24 hr, read-out: T-47D (24 hr) EC50
# [14] = T-47D, 48 hr, read-out: T-47D (48 hr) EC50
# [15] = Table III, time not given, repeats 24 hr or 48 hr T-47D values of Table I, read-out: Caspase activation (EC50 nM)
# [16] = 24 h, read-out: T-47D (24 hr) EC50 (nM)
# [17] = read-out: Caspase activation (EC50 nM)
# Chain of tubulin (P81947 whole entry): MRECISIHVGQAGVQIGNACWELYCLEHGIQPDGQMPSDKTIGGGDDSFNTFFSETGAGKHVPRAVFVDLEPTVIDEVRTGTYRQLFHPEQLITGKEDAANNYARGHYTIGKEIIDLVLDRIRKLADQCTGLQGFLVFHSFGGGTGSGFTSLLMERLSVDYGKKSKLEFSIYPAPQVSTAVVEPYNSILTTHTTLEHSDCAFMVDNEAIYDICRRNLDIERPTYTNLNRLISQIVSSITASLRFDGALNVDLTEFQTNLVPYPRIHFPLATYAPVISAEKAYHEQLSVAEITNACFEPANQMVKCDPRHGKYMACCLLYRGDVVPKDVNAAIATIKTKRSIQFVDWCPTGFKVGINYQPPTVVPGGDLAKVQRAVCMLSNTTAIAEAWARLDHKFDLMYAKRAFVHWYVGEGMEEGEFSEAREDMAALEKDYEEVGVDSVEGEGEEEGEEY
# Chain of tubulin (Q6B856 whole entry): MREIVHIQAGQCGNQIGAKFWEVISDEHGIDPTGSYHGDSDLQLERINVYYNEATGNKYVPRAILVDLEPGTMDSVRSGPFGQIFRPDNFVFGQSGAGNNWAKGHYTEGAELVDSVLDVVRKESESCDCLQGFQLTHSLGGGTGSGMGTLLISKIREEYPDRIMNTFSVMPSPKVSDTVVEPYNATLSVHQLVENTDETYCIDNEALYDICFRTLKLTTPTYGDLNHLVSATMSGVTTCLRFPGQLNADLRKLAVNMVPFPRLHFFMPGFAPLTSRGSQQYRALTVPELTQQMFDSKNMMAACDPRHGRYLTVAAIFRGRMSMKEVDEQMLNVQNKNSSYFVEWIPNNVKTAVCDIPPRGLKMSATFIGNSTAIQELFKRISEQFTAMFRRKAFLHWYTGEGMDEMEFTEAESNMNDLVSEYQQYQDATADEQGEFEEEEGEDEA
Structure (SMILES),"EC50 [1, 13]","EC50 [1, 14]","EC50 [1, 15]",IC50 [2],other results
"COc1ccc(OC)c(N(C)c2nc(Cl)nc3ccccc23)c1 [Example 42, (2-Chloro-quinazolin-4-yl)-(2,5-dimethoxy-phenyl)-methyl-amine]",282 nM,265 nM,282 nM,5000 nM,
"COc1ccc(N(C)c2ncnc3c2CCCC3)cc1 [Example 25, (5,6,7,8-Tetrahydro-quinazolin-4-yl)-(4-methoxy-phenyl)-methyl-amine]",,42 nM,42 nM,2000 nM,
"COc1cc([C@@H]2c3cc4c(cc3[C@@H](O[C@@H]3O[C@@H]5CO[C@@H](C)O[C@H]5[C@H](O)[C@H]3O)[C@H]3COC(=O)[C@H]23)OCO4)cc(OC)c1O [VP-16, etoposide, reference compound]",,,,,Effect on topoisomerase I-dependent relaxation of supercoiled DNA [8]: no apparent effect on topoisomerase I activity
"COc1ccc(N(C)c2nc(NC/C=C(\C)CCC=C(C)C)nc3ccccc23)cc1 [Example 13, N^2-(3,7-Dimethyl-octa-2,6-dienyl)-N^4-(4-methoxy-phenyl)-N^4-methyl-quinazoline-2,4-diamine]",260 nM,,260 nM,6000 nM,
"COc1ccc(Nc2nc(Cl)nc3ccccc23)cc1 [Example 7, (2-Chloro-quinazolin-4-yl)-(4-methoxy-phenyl)-amine]",> 10000 nM,> 10000 nM,> 10000 nM,> 50000 nM,GI50 [3]: > 10000 nM; GI50 [4]: > 10000 nM; GI50 [5]: > 10000 nM; GI50 [6]: > 10000 nM; GI50 [7]: > 10000 nM
"COc1ccc(N(C)c2nc(C)nc3ccccc23)cc1 [Example 72, (4-Methoxy-phenyl)-methyl-(2-methyl-quinazolin-4-yl)-amine hydrochloride]",,,,< 1000 nM,"EC50 [1, 16]: 2 nM; EC50 ([1]; 48 h, read-out: T-47D (48 hr) EC50 (nM)): 2 nM; EC50 [1, 17]: 2 nM"
"CN(c1ccccc1)c1nc(Cl)nc2ccccc12 [Example 6, (2-Chloro-quinazolin-4-yl)-phenyl-methyl-amine]",,,,4000 nM,"EC50 [1, 16]: 219 nM; EC50 [1, 17]: 219 nM"
"COc1ccc(OC)c(Nc2nc(Cl)nc3ccccc23)c1 [Example 31, (2-Chloro-quinazolin-4-yl)-(2,5-dimethoxy-phenyl)-amine]",317 nM,563 nM,317 nM,10000 nM,
"COc1ccc(N(C)c2ncnc3ccccc23)cc1 [Example 34, (4-Methoxy-phenyl)-methyl-quinazolin-4-yl-amine]",,,,1000 nM,
"COc1ccc(N(C)c2nc(Cl)nc3ccccc23)c(OC)c1 [Example 41, (2-Chloro-quinazolin-4-yl)-(2,4-dimethoxy-phenyl)-methyl-amine]",,20 nM,20 nM,< 1000 nM,
"CC(=O)O[C@@]12CO[C@@H]1C[C@H](O)[C@@]1(C)C(=O)[C@H](O)C3=C(C)[C@@H](OC(=O)[C@H](O)[C@@H](NC(=O)OC(C)(C)C)c4ccccc4)C[C@@](O)([C@@H](OC(=O)c4ccccc4)[C@H]21)C3(C)C [Docetaxel, docetaxel]",,,,,IC50 [9]: 2 nM; IC50 [10]: 410 nM; IC50 [11]: 7 nM; IC50 [12]: 127 nM
"CC[C@]1(O)C[C@@H]2CN(CCc3c([nH]c4ccccc34)[C@@](C(=O)OC)(c3cc4c(cc3OC)N(C)[C@H]3[C@@](O)(C(=O)OC)[C@H](OC(C)=O)[C@]5(CC)C=CCN6CC[C@]43[C@@H]65)C2)C1 [Vinblastine, vinblastine]",,,,,IC50 [9]: 0.5 nM; IC50 [10]: 3 nM; IC50 [11]: 2.6 nM; IC50 [12]: 2.8 nM
"COc1ccc(N(C)c2nc(Cl)nc3cc(OC)c(OC)cc23)cc1 [Example 20, (2-Chloro-6,7-dimethoxyquinazolin-4-yl)-(4-methoxy-phenyl)-methyl-amine]",161 nM,,161 nM,3000 nM,

# More lines, main results first:
"EC50 [1, 13]","EC50 [1, 14]","EC50 [1, 15]",IC50 [2],Structure (SMILES),other results
6 nM,,6 nM,< 1000 nM,"COc1ccc(N(C)c2nc(Cl)nc3ccccc23)cn1 [Example 36, (2-Chloro-quinazolin-4-yl)-(6-methoxy-pyridin-3-yl)-methyl-amine]",GI50 [3]: 111 nM; GI50 [4]: 89 nM; GI50 [5]: 53 nM; GI50 [6]: 73 nM; GI50 [7]: 70 nM
31 nM,,31 nM,3000 nM,"Cc1ccc(N(C)c2nc(Cl)nc3ccccc23)cc1 [Example 2, (2-Chloro-quinazolin-4-yl)-(4-methyl-phenyl)-methyl-amine]",
141 nM,,141 nM,4000 nM,"Cc1ccc(N(C)c2ncnc3ccccc23)cc1 [Example 35, (4-Methyl-phenyl)-methyl-quinazolin-4-yl-amine]",
,501 nM,501 nM,10000 nM,"COc1ccccc1N(C)c1nc(Cl)nc2ccccc12 [Example 44, (2-Chloro-quinazolin-4-yl)-(2-methoxy-phenyl)-methyl-amine]",
,34 nM,34 nM,2000 nM,"COc1cccc(N(C)c2nc(Cl)nc3ccccc23)c1 [Example 43, (2-Chloro-quinazolin-4-yl)-(3-methoxy-phenyl)-methyl-amine]",
,599 nM,599 nM,10000 nM,"COc1ccc(N(C)c2nccc3ccccc23)cc1 [Example 65, (Isoquinolin-1-yl)-(4-methoxy-phenyl)-methyl-amine]",
